This is an account of results in BindingDB's records for doi:10.1016/s0028-3908(05)80009-7 (Universit&Eacute, 1994).

Where a SMILES comes first, the peptide text is derived from it. [ ]: non-standard residue; d: D form. ξ: configuration not given here. Ile(3ξ) = CCC(C)[C@H](N)C(=O)O

In general, Ki refers to the equilibrium dissociation constant of an inhibitor or competing ligand from its target.

The test addresses T1, Pituitary adenylate cyclase-activating polypeptide (Rattus norvegicus, UniProt P13589).
T1 sequence (P13589 whole entry): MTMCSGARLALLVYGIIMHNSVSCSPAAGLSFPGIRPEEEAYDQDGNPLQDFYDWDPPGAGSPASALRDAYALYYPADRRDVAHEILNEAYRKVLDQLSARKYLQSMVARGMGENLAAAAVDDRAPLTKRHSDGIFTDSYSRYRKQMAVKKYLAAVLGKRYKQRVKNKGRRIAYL
Turning to `CCC(C)[C@H](NC(=O)CNC(=O)[C@H](CC(=O)O)NC(=O)[C@H](Cc1ccccc1)NC(=O)[C@@H](N)Cc1cnc[nH]1)C(=O)N[C@@H](Cc1ccccc1)C(=O)N[C@H](C(=O)N[C@@H](CC(=O)O)C(=O)N[C@@H](CO)C(=O)N[C@@H](Cc1ccc(O)cc1)C(=O)N[C@@H](CO)C(=O)N[C@@H](CCCN=C(N)N)C(=O)N[C@@H](Cc1ccc(O)cc1)C(=O)N[C@@H](CCCN=C(N)N)C(=O)N[C@@H](CCCCN)C(=O)N[C@@H](CCC(N)=O)C(=O)N[C@@H](CCSC)C(=O)N[C@@H](C)C(=O)N[C@H](C(=O)N[C@@H](CCCCN)C(=O)N[C@@H](CCCCN)C(=O)N[C@@H](Cc1ccc(O)cc1)C(=O)N[C@@H](CC(C)C)C(=O)N[C@@H](C)C(=O)N[C@@H](C)C(=O)N[C@H](C(=O)N[C@@H](CC(C)C)C(N)=O)C(C)C)C(C)C)[C@@H](C)O` (stereo partly specified) [[Phe2]PACAP(1-27)], the Ki was determined as 0.06 µM.

On to `CCC(C)[C@H](N)C(=O)N[C@@H](Cc1ccccc1)C(=O)N[C@H](C(=O)N[C@@H](CC(=O)O)C(=O)N[C@@H](CO)C(=O)N[C@@H](Cc1ccc(O)cc1)C(=O)N[C@@H](CO)C(=O)N[C@@H](CCCN=C(N)N)C(=O)N[C@@H](Cc1ccc(O)cc1)C(=O)N[C@@H](CCCN=C(N)N)C(=O)N[C@@H](CCCCN)C(=O)N[C@@H](CCC(N)=O)C(=O)N[C@@H](CCSC)C(=O)N[C@@H](C)C(=O)N[C@H](C(=O)N[C@@H](CCCCN)C(=O)N[C@@H](CCCCN)C(=O)N[C@@H](Cc1ccc(O)cc1)C(=O)N[C@@H](CC(C)C)C(=O)N[C@@H](C)C(=O)N[C@@H](C)C(=O)N[C@H](C(=O)N[C@@H](CC(C)C)C(N)=O)C(C)C)C(C)C)[C@@H](C)O` (stereo partly specified) [PACAP(5-27)] (H-[Ile(3ξ)]FTDSYSRYRKQMAVKKYLAAVL-NH2), for which affinity was put at a Ki of 1 µM. `CC[C@H](C)[C@H](NC(=O)CNC(=O)[C@H](CC(=O)O)NC(=O)[C@@H](C)NC(=O)[C@@H](N)Cc1cnc[nH]1)C(=O)N[C@@H](Cc1ccccc1)C(=O)N[C@H](C(=O)N[C@@H](CC(=O)O)C(=O)N[C@@H](CO)C(=O)N[C@@H](Cc1ccc(O)cc1)C(=O)N[C@@H](CO)C(=O)N[C@@H](CCCN=C(N)N)C(=O)N[C@@H](Cc1ccc(O)cc1)C(=O)N[C@@H](CCCN=C(N)N)C(=O)N[C@@H](CCCCN)C(=O)N[C@@H](CCC(N)=O)C(=O)N[C@@H](CCSC)C(=O)N[C@@H](C)C(=O)N[C@H](C(=O)N[C@@H](CCCCN)C(=O)N[C@@H](CCCCN)C(=O)N[C@@H](Cc1ccc(O)cc1)C(=O)N[C@@H](CC(C)C)C(=O)N[C@@H](C)C(=O)N[C@@H](C)C(=O)N[C@H](C(=O)N[C@@H](CC(C)C)C(N)=O)C(C)C)C(C)C)[C@@H](C)O` [[DAla2]PACAP(1-27)] returned a Ki of 0.008 µM. Then `CCC(C)[C@H](NC(=O)CN)C(=O)N[C@@H](Cc1ccccc1)C(=O)N[C@H](C(=O)N[C@@H](CC(=O)O)C(=O)N[C@@H](CO)C(=O)N[C@@H](Cc1ccc(O)cc1)C(=O)N[C@@H](CO)C(=O)N[C@@H](CCCN=C(N)N)C(=O)N[C@@H](Cc1ccc(O)cc1)C(=O)N[C@@H](CCCN=C(N)N)C(=O)N[C@@H](CCCCN)C(=O)N[C@@H](CCC(N)=O)C(=O)N[C@@H](CCSC)C(=O)N[C@@H](C)C(=O)N[C@H](C(=O)N[C@@H](CCCCN)C(=O)N[C@@H](CCCCN)C(=O)N[C@@H](Cc1ccc(O)cc1)C(=O)N[C@@H](CC(C)C)C(=O)N[C@@H](C)C(=O)N[C@@H](C)C(=O)N[C@H](C(=O)N[C@@H](CC(C)C)C(=O)NCC(=O)N[C@@H](CCCCN)C(=O)N[C@@H](CCCN=C(N)N)C(=O)N[C@@H](Cc1ccc(O)cc1)C(=O)N[C@@H](CCCCN)C(=O)N[C@@H](CCC(N)=O)C(=O)N[C@@H](CCCN=C(N)N)C(=O)N[C@H](C(=O)N[C@@H](CCCCN)C(=O)N[C@@H](CC(N)=O)C(=O)N[C@@H](CCCCN)C(N)=O)C(C)C)C(C)C)C(C)C)[C@@H](C)O` (stereo partly specified) [PACAP(4-38)] (H-G[Ile(3ξ)]FTDSYSRYRKQMAVKKYLAAVLGKRYKQRVKNK-NH2), with 0.02 µM; and `CC[C@H](C)[C@H](NC(=O)CNC(=O)[C@H](CC(=O)O)NC(=O)[C@H](CO)NC(=O)[C@@H](N)Cc1cnc[nH]1)C(=O)N[C@@H](Cc1ccccc1)C(=O)N[C@H](C(=O)N[C@@H](CC(=O)O)C(=O)N[C@@H](CO)C(=O)N[C@@H](Cc1ccc(O)cc1)C(=O)N[C@@H](CO)C(=O)N[C@@H](CCCNC(=N)N)C(=O)N[C@@H](Cc1ccc(O)cc1)C(=O)N[C@@H](CCCNC(=N)N)C(=O)N[C@@H](CCCCN)C(=O)N[C@@H](CCC(N)=O)C(=O)N[C@@H](CCSC)C(=O)N[C@@H](C)C(=O)N[C@H](C(=O)N[C@@H](CCCCN)C(=O)N[C@@H](CCCCN)C(=O)N[C@@H](Cc1ccc(O)cc1)C(=O)N[C@@H](CC(C)C)C(=O)N[C@@H](C)C(=O)N[C@@H](C)C(=O)N[C@H](C(=O)N[C@@H](CC(C)C)C(=O)NCC(=O)N[C@@H](CCCCN)C(=O)N[C@@H](CCCNC(=N)N)C(=O)N[C@@H](Cc1ccc(O)cc1)C(=O)N[C@@H](CCCCN)C(=O)N[C@@H](CCC(N)=O)C(=O)N[C@@H](CCCNC(=N)N)C(=O)N[C@H](C(=O)N[C@@H](CCCCN)C(=O)N[C@@H](CC(N)=O)C(=O)N[C@@H](CCCCN)C(N)=O)C(C)C)C(C)C)C(C)C)[C@@H](C)O` [PACAP], with 0.0003 µM; and `CCC(C)[C@H](N)C(=O)N[C@@H](Cc1ccccc1)C(=O)N[C@H](C(=O)N[C@@H](CC(=O)O)C(=O)N[C@@H](CO)C(=O)N[C@@H](Cc1ccc(O)cc1)C(=O)N[C@@H](CO)C(=O)N[C@@H](CCCN=C(N)N)C(=O)N[C@@H](Cc1ccc(O)cc1)C(=O)N[C@@H](CCCN=C(N)N)C(=O)N[C@@H](CCCCN)C(=O)N[C@@H](CCC(N)=O)C(=O)N[C@@H](CCSC)C(=O)N[C@@H](C)C(=O)N[C@H](C(=O)N[C@@H](CCCCN)C(=O)N[C@@H](CCCCN)C(=O)N[C@@H](Cc1ccc(O)cc1)C(=O)N[C@@H](CC(C)C)C(=O)N[C@@H](C)C(=O)N[C@@H](C)C(=O)N[C@H](C(=O)N[C@@H](CC(C)C)C(=O)NCC(=O)N[C@@H](CCCCN)C(=O)N[C@@H](CCCN=C(N)N)C(=O)N[C@@H](Cc1ccc(O)cc1)C(=O)N[C@@H](CCCCN)C(=O)N[C@@H](CCC(N)=O)C(=O)N[C@@H](CCCN=C(N)N)C(=O)N[C@H](C(=O)N[C@@H](CCCCN)C(=O)N[C@@H](CC(N)=O)C(=O)N[C@@H](CCCCN)C(N)=O)C(C)C)C(C)C)C(C)C)[C@@H](C)O` (stereo partly specified) [PACAP(5-38)] (H-[Ile(3ξ)]FTDSYSRYRKQMAVKKYLAAVLGKRYKQRVKNK-NH2), with 0.009 µM.

In turn, `CCC(C)[C@H](NC(=O)CNC(=O)[C@H](CC(=O)O)NC(=O)[C@H](Cc1ccccc1)NC(=O)[C@@H](N)Cc1cnc[nH]1)C(=O)N[C@@H](Cc1ccccc1)C(=O)N[C@H](C(=O)N[C@@H](CC(=O)O)C(=O)N[C@@H](CO)C(=O)N[C@@H](Cc1ccc(O)cc1)C(=O)N[C@@H](CO)C(=O)N[C@@H](CCCN=C(N)N)C(=O)N[C@@H](Cc1ccc(O)cc1)C(=O)N[C@@H](CCCN=C(N)N)C(=O)N[C@@H](CCCCN)C(=O)N[C@@H](CCC(N)=O)C(=O)N[C@@H](CCSC)C(=O)N[C@@H](C)C(=O)N[C@H](C(=O)N[C@@H](CCCCN)C(=O)N[C@@H](CCCCN)C(=O)N[C@@H](Cc1ccc(O)cc1)C(=O)N[C@@H](CC(C)C)C(=O)N[C@@H](C)C(=O)N[C@@H](C)C(=O)N[C@H](C(=O)N[C@@H](CC(C)C)C(=O)NCC(=O)N[C@@H](CCCCN)C(=O)N[C@@H](CCCN=C(N)N)C(=O)N[C@@H](Cc1ccc(O)cc1)C(=O)N[C@@H](CCCCN)C(=O)N[C@@H](CCC(N)=O)C(=O)N[C@@H](CCCN=C(N)N)C(=O)N[C@H](C(=O)N[C@@H](CCCCN)C(=O)N[C@@H](CC(N)=O)C(=O)N[C@@H](CCCCN)C(N)=O)C(C)C)C(C)C)C(C)C)[C@@H](C)O` (stereo partly specified) [[Phe2]PACAP(1-38)] (H-HFDG[Ile(3ξ)]FTDSYSRYRKQMAVKKYLAAVLGKRYKQRVKNK-NH2) showed a Ki of 0.002 µM. In turn, `CCC(C)[C@H](NC(=O)CNC(=O)[C@H](CC(=O)O)NC(=O)[C@@H](C)NC(=O)[C@@H](N)Cc1cnc[nH]1)C(=O)N[C@@H](Cc1ccccc1)C(=O)N[C@H](C(=O)N[C@@H](CC(=O)O)C(=O)N[C@@H](CO)C(=O)N[C@@H](Cc1ccc(O)cc1)C(=O)N[C@@H](CO)C(=O)N[C@@H](CCCN=C(N)N)C(=O)N[C@@H](Cc1ccc(O)cc1)C(=O)N[C@@H](CCCN=C(N)N)C(=O)N[C@@H](CCCCN)C(=O)N[C@@H](CCC(N)=O)C(=O)N[C@@H](CCSC)C(=O)N[C@@H](C)C(=O)N[C@H](C(=O)N[C@@H](CCCCN)C(=O)N[C@@H](CCCCN)C(=O)N[C@@H](Cc1ccc(O)cc1)C(=O)N[C@@H](CC(C)C)C(=O)N[C@@H](C)C(=O)N[C@@H](C)C(=O)N[C@H](C(=O)N[C@@H](CC(C)C)C(=O)NCC(=O)N[C@@H](CCCCN)C(=O)N[C@@H](CCCN=C(N)N)C(=O)N[C@@H](Cc1ccc(O)cc1)C(=O)N[C@@H](CCCCN)C(=O)N[C@@H](CCC(N)=O)C(=O)N[C@@H](CCCN=C(N)N)C(=O)N[C@H](C(=O)N[C@@H](CCCCN)C(=O)N[C@@H](CC(N)=O)C(=O)N[C@@H](CCCCN)C(N)=O)C(C)C)C(C)C)C(C)C)[C@@H](C)O` (stereo partly specified) [[DAla2]PACAP(1-38)] registered a Ki of 0.0007 µM. “H-SYSRYRKQMAVKKYLAAVLGKRYKQRVKNK-NH2 [PACAP(9-38)]” gave an inhibitory constant (Ki) of 0.03 µM. Then `CC[C@H](C)[C@H](NC(=O)CNC(=O)[C@H](CC(=O)O)NC(=O)[C@H](CCCN=C(N)N)NC(=O)[C@@H](N)Cc1cnc[nH]1)C(=O)N[C@@H](Cc1ccccc1)C(=O)N[C@H](C(=O)N[C@@H](CC(=O)O)C(=O)N[C@@H](CO)C(=O)N[C@@H](Cc1ccc(O)cc1)C(=O)N[C@@H](CO)C(=O)N[C@@H](CCCN=C(N)N)C(=O)N[C@@H](Cc1ccc(O)cc1)C(=O)N[C@@H](CCCN=C(N)N)C(=O)N[C@@H](CCCCN)C(=O)N[C@@H](CCC(N)=O)C(=O)N[C@@H](CCSC)C(=O)N[C@@H](C)C(=O)N[C@H](C(=O)N[C@@H](CCCCN)C(=O)N[C@@H](CCCCN)C(=O)N[C@@H](Cc1ccc(O)cc1)C(=O)N[C@@H](CC(C)C)C(=O)N[C@@H](C)C(=O)N[C@@H](C)C(=O)N[C@H](C(=O)N[C@@H](CC(C)C)C(=O)NCC(=O)N[C@@H](CCCCN)C(=O)N[C@@H](CCCN=C(N)N)C(=O)N[C@@H](Cc1ccc(O)cc1)C(=O)N[C@@H](CCCCN)C(=O)N[C@@H](CCC(N)=O)C(=O)N[C@@H](CCCN=C(N)N)C(=O)N[C@H](C(=O)N[C@@H](CCCCN)C(=O)N[C@@H](CC(N)=O)C(=O)N[C@@H](CCCCN)C(N)=O)C(C)C)C(C)C)C(C)C)[C@@H](C)O` [[Arg2]PACAP(1-38)], with 0.01 µM; and “H-TDSYSRYRKQMAVKKYLAAVLGKRYKQRVKNK-NH2 [PACAP(7-38)]”, with 0.01 µM.
